Several values for one entry are separate records, joined by “and”; a condition that tells them apart may be missing. Identical values can stand only once. Inconclusive results and toxic doses are left out. The calls were made as follows: active = survival T/C of 150% or more; inactive = T/C below 125% in these data.
System: BDF1 mice, P388 leukemia ip, median survival T/C
Assay: NCI In Vivo Anticancer Drug Screen. Data for tumor model P388 Leukemia (intraperitoneal) in B6D2F1 (BDF1) mice
Details: endpoint: median survival time, higher = longer survival
How it was run: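 Vehicle-dosed animals serve as the reference; survival of compound-dosed, tumour-implanted mice is divided by it.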

[1] = dose: 25.0 mg/kg/injection, schedule: Q04DX003 (ip), vehicle: Klucel (hydroxypropylcellulose) (HPC)
[2] = dose: 50.0 mg/kg/injection, schedule: Q04DX003 (ip), vehicle: Klucel (hydroxypropylcellulose) (HPC)
[3] = dose: 100.0 mg/kg/injection, schedule: Q04DX003 (ip), vehicle: Klucel (hydroxypropylcellulose) (HPC)
[4] = dose: 200.0 mg/kg/injection, schedule: Q04DX003 (ip), vehicle: Klucel (hydroxypropylcellulose) (HPC)
[5] = dose: 400.0 mg/kg/injection, schedule: Q04DX003 (ip), vehicle: Klucel (hydroxypropylcellulose) (HPC)
[6] = dose: 50.0 mg/kg/injection, schedule: Q04DX003 (ip), vehicle: saline with Tween-80
[7] = dose: 100.0 mg/kg/injection, schedule: Q04DX003 (ip), vehicle: saline with Tween-80
[8] = dose: 200.0 mg/kg/injection, schedule: Q04DX003 (ip), vehicle: saline with Tween-80
[9] = dose: 25.0 mg/kg/injection, schedule: Q01DX009 (ip), vehicle: saline with Tween-80
[10] = dose: 50.0 mg/kg/injection, schedule: Q01DX009 (ip), vehicle: saline with Tween-80
[11] = dose: 100.0 mg/kg/injection, schedule: Q01DX009 (ip), vehicle: saline with Tween-80
[12] = dose: 150.0 mg/kg/injection, schedule: Q01DX009 (ip), vehicle: saline
[13] = dose: 25.0 mg/kg/injection, schedule: Q01DX009 (ip), vehicle: saline
[14] = dose: 50.0 mg/kg/injection, schedule: Q01DX009 (ip), vehicle: saline
[15] = dose: 100.0 mg/kg/injection, schedule: Q01DX009 (ip), vehicle: saline
[16] = dose: 100.0 mg/kg/injection, schedule: Q04DX003 (ip), vehicle: saline
[17] = dose: 200.0 mg/kg/injection, schedule: Q01DX009 (ip), vehicle: saline
[18] = dose: 200.0 mg/kg/injection, schedule: Q04DX003 (ip), vehicle: saline
[19] = dose: 400.0 mg/kg/injection, schedule: Q04DX003 (ip), vehicle: saline
[20] = dose: 6.25 mg/kg/injection, schedule: Q01DX009 (ip), vehicle: water
[21] = dose: 400.0 mg/kg/injection, schedule: Q04DX003 (ip), vehicle: saline with Tween-80
[22] = dose: 200.0 mg/kg/injection, schedule: Q01DX009 (ip), vehicle: saline with Tween-80

Measured: T/C

NC(=O)C(c1ccccc1)N1CCCCC1 (stereo unspecified)
inactive: dose: 6.25 mg/kg/injection, schedule: Q01DX009 (ip), vehicle: Klucel (hydroxypropylcellulose) (HPC) 109 % of control | dose: 12.5 mg/kg/injection, schedule: Q01DX009 (ip), vehicle: Klucel (hydroxypropylcellulose) (HPC) 95 % of control | dose: 25.0 mg/kg/injection, schedule: Q01DX009 (ip), vehicle: Klucel (hydroxypropylcellulose) (HPC) 95 % of control | [1] 104 % of control | dose: 50.0 mg/kg/injection, schedule: Q01DX009 (ip), vehicle: Klucel (hydroxypropylcellulose) (HPC) 91 % of control | [2] 104 % of control | [3] 108 % of control

CN(C)c1ccc(C(C[N+](=O)[O-])(c2ccc(N(C)C)cc2)c2ccc(N(C)C)cc2)cc1
inactive: [3] 100 % of control | [4] 90 % of control | [5] 100 % of control

O=CNNS(=O)(=O)/C=C/c1ccccc1
inactive: dose: 12.5 mg/kg/injection, schedule: Q01DX009 (ip), vehicle: distilled water + Tween-80 106 % of control | dose: 25.0 mg/kg/injection, schedule: Q01DX009 (ip), vehicle: distilled water + Tween-80 105 % of control | dose: 50.0 mg/kg/injection, schedule: Q01DX009 (ip), vehicle: distilled water + Tween-80 102 % of control | dose: 100.0 mg/kg/injection, schedule: Q01DX009 (ip), vehicle: distilled water + Tween-80 89 % of control | dose: 200.0 mg/kg/injection, schedule: Q01DX009 (ip), vehicle: distilled water + Tween-80 89 % of control

CC(Br)C(=O)NCC(=O)O (stereo unspecified)
inactive: [6] 90 % of control | [7] 95 % of control | [8] 100 % of control

CCSc1ncnc2c1ncn2CN1CCOCC1
active: [11] 168 % of control
inactive: [9] 86 % of control | [10] 95 % of control | [12] 100 % of control | dose: 330.0 mg/kg/injection, schedule: Q01DX009 (ip), vehicle: saline 110 % of control

COc1ccc(C=[N+](C)CCc2ccc(OC)c(OC)c2)cc1OC
inactive: [13] 95 % of control | [14] 101 % of control | dose: 50.0 mg/kg/injection, schedule: Q04DX003 (ip), vehicle: saline 106 % of control | [15] 100 % of control | [16] 102 % of control | [17] 116 % of control | [18] 100 % of control | [19] 106 % of control

NC1CSSC1
inactive: dose: 0.39 mg/kg/injection, schedule: Q01DX009 (ip), vehicle: water 93 % of control and 108 % of control | dose: 1.56 mg/kg/injection, schedule: Q04DX003 (ip), vehicle: water 97 % of control | dose: 3.12 mg/kg/injection, schedule: Q04DX003 (ip), vehicle: water 106 % of control | [20] 91 % of control and 94 % of control and 96 % of control | dose: 6.25 mg/kg/injection, schedule: Q04DX003 (ip), vehicle: water 105 % of control

COc1cc(OC)c(OC)cc1/C=N/Nc1ccc(C(=O)O)cc1
inactive: [7] 105 % of control | [8] 100 % of control | [21] 110 % of control

CC([NH-])C(=O)O.O=C(O)CN(CC(=O)O)CC(=O)O.[Co+2]
inactive: [14] 110 % of control and 113 % of control | dose: 66.0 mg/kg/injection, schedule: Q01DX009 (ip), vehicle: saline 114 % of control | [16] 87 % of control | [12] 104 % of control | [17] 104 % of control | [18] 104 % of control | [19] 91 % of control

Cc1c2c(cc3c1[nH]c1ccccc13)C=NCC2
inactive: [10] 93 % of control | [11] 99 % of control | [22] 101 % of control

[Cl][Eu]([Cl])[Cl]
inactive: dose: 6.25 mg/kg/injection, schedule: Q01DX009 (ip), vehicle: saline 98 % of control | dose: 12.5 mg/kg/injection, schedule: Q01DX009 (ip), vehicle: saline 100 % of control | [13] 92 % of control | [14] 96 % of control

O=[N+]([O-])c1ccc(S(=O)c2ccccc2)c2c1no[n+]2[O-] (stereo unspecified)
inactive: dose: 22.5 mg/kg/injection, schedule: Q01DX009 (ip), vehicle: saline with Tween-80 92 % of control | dose: 45.0 mg/kg/injection, schedule: Q01DX009 (ip), vehicle: saline with Tween-80 93 % of control

COCC(O)CC#N (stereo unspecified)
inactive: [15] 100 % of control | [16] 95 % of control | [17] 87 % of control | [18] 95 % of control | dose: 400.0 mg/kg/injection, schedule: Q01DX009 (ip), vehicle: saline 95 % of control | [19] 100 % of control

O=C1C=C2SCCN2C(=O)C1
inactive: [9] 99 % of control | [10] 99 % of control and 109 % of control | [11] 97 % of control and 124 % of control | [22] 105 % of control and 114 % of control

CCOc1ccc(S(=O)(=O)c2ccc(C)cc2)c2c1no[n+]2[O-]
inactive: dose: 15.0 mg/kg/injection, schedule: Q01DX009 (ip), vehicle: saline with Tween-80 102 % of control

COc1ccc(C(=O)C(C)C(O)(C(F)(F)F)C(F)(F)F)cc1 (stereo unspecified)
inactive: dose: 100.0 mg/kg/injection, schedule: Q01DX001 (ip), vehicle: Klucel (hydroxypropylcellulose) (HPC) 109 % of control | dose: 200.0 mg/kg/injection, schedule: Q01DX001 (ip), vehicle: Klucel (hydroxypropylcellulose) (HPC) 109 % of control | dose: 400.0 mg/kg/injection, schedule: Q01DX001 (ip), vehicle: Klucel (hydroxypropylcellulose) (HPC) 109 % of control

O=C1c2cc3c(cc2CCC1c1ccc2c(c1)OCO2)OCO3 (stereo unspecified)
inactive: dose: 20.0 mg/kg/injection, schedule: Q01DX009 (ip), vehicle: saline with Tween-80 91 % of control | dose: 40.0 mg/kg/injection, schedule: Q01DX009 (ip), vehicle: saline with Tween-80 91 % of control | dose: 120.0 mg/kg/injection, schedule: Q01DX009 (ip), vehicle: saline with Tween-80 95 % of control | dose: 240.0 mg/kg/injection, schedule: Q01DX009 (ip), vehicle: saline with Tween-80 91 % of control

C#CC(C)OCC1CNC(=S)O1 (stereo unspecified)
inactive: [6] 110 % of control | [7] 100 % of control | [8] 115 % of control | [21] 110 % of control

CC(C)(C)CC(=O)OCCC[N+](C)(C)C
inactive: [20] 103 % of control | dose: 12.5 mg/kg/injection, schedule: Q01DX009 (ip), vehicle: water 119 % of control | dose: 25.0 mg/kg/injection, schedule: Q01DX009 (ip), vehicle: water 99 % of control | dose: 50.0 mg/kg/injection, schedule: Q01DX009 (ip), vehicle: water 91 % of control

O=[N+]([O-])c1ccc(/C=C\S(=O)(=O)OCCCl)cc1
inactive: dose: 3.12 mg/kg/injection, schedule: Q01DX005 (ip), vehicle: Klucel (hydroxypropylcellulose) (HPC) 115 % of control | dose: 6.25 mg/kg/injection, schedule: Q01DX005 (ip), vehicle: Klucel (hydroxypropylcellulose) (HPC) 99 % of control | dose: 12.5 mg/kg/injection, schedule: Q01DX005 (ip), vehicle: Klucel (hydroxypropylcellulose) (HPC) 114 % of control

CCOC(=O)CCN(CCC(=O)OCC)C(C)C
inactive: [7] 100 % of control | [8] 100 % of control | [21] 100 % of control

ClC(Cl)(Cl)CC(Br)c1ccccc1 (stereo unspecified)
inactive: dose: 100.0 mg/kg/injection, schedule: Q04DX003 (ip), vehicle: saline sonified 91 % of control | dose: 200.0 mg/kg/injection, schedule: Q04DX003 (ip), vehicle: saline sonified 100 % of control | dose: 400.0 mg/kg/injection, schedule: Q04DX003 (ip), vehicle: saline sonified 100 % of control

Cc1c(C(=O)O)nc(/C=C/C(Cl)(Cl)Cl)[nH]c1=O
inactive: [1] 102 % of control | [2] 100 % of control | [3] 115 % of control | [4] 103 % of control | [5] 116 % of control

COc1ccc(CN)cc1OC
inactive: [10] 100 % of control | [11] 91 % of control | [22] 97 % of control

Cc1csc2ccccc12
inactive: dose: 12.5 mg/kg/injection, schedule: Q01DX009 (ip), vehicle: saline with Tween-80 111 % of control | [9] 102 % of control | [10] 119 % of control

CC(=O)/C(C1=NCCC1)=C(/C)O
inactive: [13] 109 % of control | [14] 100 % of control | [15] 100 % of control

Oc1cc(OCCCc2ccc(F)cc2)cc2ccc3ccccc3c12
inactive: [7] 112 % of control | [8] 86 % of control

— PubChem BioAssay AID328 (DTP/NCI, 2004)
